# Measured values taken from patent publication US20190315806A1, “POLYMYXIN DERIVATIVE, PREPARATION METHOD AND APPLICATION THEREOF” (priority 2016, published 2019).
# Read-outs that look alike come from different tables or passages of the source. Where a SMILES comes first, the peptide text is derived from it. Bridges are numbered along the chain shown (N, C = ends). [ ]: non-standard residue; d: D form. The star is where a group is joined. dBpa = N[C@H](Cc1ccc(C(=O)c2ccccc2)cc1)C(=O)O; X2 = CC[C@H](C)CCCCC(=O)*; Heptanoyl = CCCCCCC(=O)*; Octanoyl = CCCCCCCC(=O)*; Dab = NCC[C@H](N)C(=O)O; X6 = CCCC(=O)CC(=O)*; X4 = COCCCCCC(=O)*
# Experiments:
# Format in all cases: cell-based
# [1] = system: Klebsiella pneumoniae ATCC BAA-2146 (NDM-1); assay: Antibacterial activity, MIC by dish double dilution method
# Procedure, shortened: (§1)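 Read-out was the lowest drug level in agar preventing visible colony growth after 18 to 24 hours at 35° C. Plates held twofold dilutions (0.03–128 μg/mL final), prepared following CLSI. Bacteria were inoculated at 10^4 CFU/dot with a multipoint inoculator.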
# [2] = system: Acinetobacter baumannii ATCC 19606
# Procedure, shortened: as §1
# [3] = system: Escherichia coli ATCC 25922
# Procedure, shortened: as §1
# [4] = system: Staphylococcus epidermidis ATCC 12228
# Procedure, shortened: as §1
# [5] = system: Pseudomonas aeruginosa ATCC 27853
# Procedure, shortened: as §1
# [6] = agar dilution, 10^4 CFU/dot, 18 to 24 hours at 35° C.
SMILES,MIC K. pneumoniae ATCC BAA-2146 (NDM-1) ([1]; ATCC BAA-2146),MIC A. baumannii ATCC 19606 ([2]; ATCC 19606),MIC E. coli ATCC 25922 ([3]; ATCC 25922),MIC S. epidermidis ATCC 12228 ([4]; ATCC 12228),MIC P. aeruginosa ATCC 27853 ([5]; ATCC 27853),"MIC K. pneumoniae ATCC BAA-2146 (NDM-1) [1, 6]","MIC A. baumannii ATCC 19606 [2, 6]","MIC E. coli ATCC 25922 [3, 6]","MIC S. epidermidis ATCC 12228 [4, 6]","MIC P. aeruginosa ATCC 27853 [5, 6]"
"CC[C@H](C)CCCCC(=O)N[C@@H](CCN)C(=O)N[C@H](C(=O)N[C@@H](CCN)C(=O)N[C@H]1CCNC(=O)[C@H]([C@@H](C)O)NC(=O)[C@H](CCN)NC(=O)[C@H](CCN)NC(=O)[C@H](CC(C)C)NC(=O)[C@@H](Cc2ccc(C(=O)c3ccccc3)cc2)NC(=O)[C@H](CCN)NC1=O)[C@@H](C)O [Compound 29, (S)-6-methyloctanoyl-Dab-Thr-Dab-ring(4-10)[Dab-Dab-D-Phe(4-benzoyl)-Lue-Dab-Dab-Thr]] (X2-[Dab]T[Dab][Dab][Dab][dBpa]L[Dab][Dab]T; lactam 4-C)",2 µg/mL,1 µg/mL,2 µg/mL,16 µg/mL,4 µg/mL,–,–,–,–,–
"CCCCCCCC(=O)N[C@@H](CCN)C(=O)N[C@H](C(=O)N[C@H](CO)C(=O)N[C@H]1CCNC(=O)[C@H]([C@@H](C)O)NC(=O)[C@H](CCN)NC(=O)[C@H](CCN)NC(=O)[C@H]([C@@H](C)O)NC(=O)[C@@H](CC(C)C)NC(=O)[C@H](CCN)NC1=O)[C@@H](C)O [Compound 60, octanoyl-Dab-Thr-D-Ser-ring(4-10)[Dab-Dab-D-Leu-Thr-Dab-Dab-Thr]] (Octanoyl-[Dab]T[dS][Dab][Dab][dL]T[Dab][Dab]T; lactam 4-C)",0.5 µg/mL,0.06 µg/mL,0.12 µg/mL,>128 µg/mL,2 µg/mL,–,–,–,–,–
"CCCCCCCC(=O)N[C@@H](CCN)C(=O)N[C@H](C(=O)N[C@@H](CO)C(=O)N[C@H]1CCNC(=O)[C@H]([C@@H](C)O)NC(=O)[C@H](CCN)NC(=O)[C@H](CCN)NC(=O)[C@H]([C@@H](C)O)NC(=O)[C@@H](CC(C)C)NC(=O)[C@H](CCN)NC1=O)[C@@H](C)O [Compound 111, octanoyl-Dab-Thr-Ser-ring(4-10)[Dab-Dab-D-Leu-Thr-Dab-Dab-Thr]] (Octanoyl-[Dab]TS[Dab][Dab][dL]T[Dab][Dab]T; lactam 4-C)",0.5 µg/mL,1 µg/mL,0.5 µg/mL,64 µg/mL,1 µg/mL,–,–,–,–,–
"CC[C@H](C)CCCCC(=O)N[C@@H](CCN)C(=O)N[C@H](C(=O)N[C@@H](CCN)C(=O)N[C@H]1CCNC(=O)[C@H]([C@@H](C)O)NC(=O)[C@H](CCN)NC(=O)[C@H](CCN)NC(=O)[C@H](CC(C)C)NC(=O)[C@@H](Cc2ccc(O)cc2)NC(=O)[C@H](CCN)NC1=O)[C@@H](C)O [Compound 12, (S)-6-methyloctanoyl-Dab-Thr-Dab-ring(4-10)[Dab-Dab-D-Tyr-Lue-Dab-Dab-Thr]] (X2-[Dab]T[Dab][Dab][Dab][dY]L[Dab][Dab]T; lactam 4-C)",2 µg/mL,2 µg/mL,2 µg/mL,128 µg/mL,1 µg/mL,–,–,–,–,–
"CCCCCCCC(=O)N[C@@H](CCN)C(=O)N[C@H](C(=O)N[C@@H](CCN)C(=O)N[C@H]1CCNC(=O)[C@H](CO)NC(=O)[C@H](CCN)NC(=O)[C@H](CCN)NC(=O)[C@H]([C@@H](C)O)NC(=O)[C@@H](CC(C)C)NC(=O)[C@H](CCN)NC1=O)[C@@H](C)O [Compound 109, octanoyl-Dab-Thr-Dab-ring(4-10)[Dab-Dab-D-Leu-Thr-Dab-Dab-Ser]] (Octanoyl-[Dab]T[Dab][Dab][Dab][dL]T[Dab][Dab]S; lactam 4-C)",2 µg/mL,16 µg/mL,1 µg/mL,>128 µg/mL,1 µg/mL,–,–,–,–,–
"CCCC(=O)CC(=O)N[C@@H](CCN)C(=O)N[C@H](C(=O)N[C@@H](CCN)C(=O)N[C@H]1CCNC(=O)[C@H]([C@@H](C)O)NC(=O)[C@H](CCN)NC(=O)[C@H](CCN)NC(=O)[C@H](CC(C)C)NC(=O)[C@@H](Cc2ccccc2)NC(=O)[C@H](CCN)NC1=O)[C@@H](C)O [Compound 3, 3-oxocaproyl-Dab-Thr-Dab-ring(4-10)[Dab-Dab-D-Phe-Lue-Dab-Dab-Thr]] (X6-[Dab]T[Dab][Dab][Dab][dF]L[Dab][Dab]T; lactam 4-C)",2 µg/mL,8 µg/mL,0.5 µg/mL,128 µg/mL,2 µg/mL,–,–,–,–,–
"COCCCCCC(=O)N[C@@H](CCN)C(=O)N[C@H](C(=O)N[C@@H](CCN)C(=O)N[C@H]1CCNC(=O)[C@H]([C@@H](C)O)NC(=O)[C@H](CCN)NC(=O)[C@H](CCN)NC(=O)[C@H](CC(C)C)NC(=O)[C@@H](Cc2ccccc2)NC(=O)[C@H](CCN)NC1=O)[C@@H](C)O [Compound 1, 6-methoxycaproyl-Dab-Thr-Dab-ring(4-10)[Dab-Dab-D-Phe-Lue-Dab-Dab-Thr]] (X4-[Dab]T[Dab][Dab][Dab][dF]L[Dab][Dab]T; lactam 4-C)",4 µg/mL,2 µg/mL,1 µg/mL,>128 µg/mL,1 µg/mL,–,–,–,–,–
"CCCCCCC(=O)N[C@@H](CCN)C(=O)N[C@H](C(=O)N[C@@H](CCN)C(=O)N[C@H]1CCNC(=O)[C@H]([C@@H](C)O)NC(=O)[C@H](CCN)NC(=O)[C@H](CCN)NC(=O)[C@H]([C@@H](C)CC)NC(=O)[C@@H](CC(C)C)NC(=O)[C@H](CCN)NC1=O)[C@@H](C)O [Compound 83, heptanoyl-Dab-Thr-Dab-ring(4-10)[Dab-Dab-D-Leu-Ile-Dab-Dab-Thr]] (Heptanoyl-[Dab]T[Dab][Dab][Dab][dL]I[Dab][Dab]T; lactam 4-C)",1 µg/mL,1 µg/mL,0.5 µg/mL,>128 µg/mL,1 µg/mL,–,–,–,–,–
"CC[C@H](C)CCCCC(=O)N[C@@H](CCN)C(=O)N[C@H](C(=O)N[C@@H](CCN)C(=O)N[C@H]1CCNC(=O)[C@H]([C@@H](C)O)NC(=O)[C@H](CCN)NC(=O)[C@H](CCN)NC(=O)[C@H](CC(C)C)NC(=O)[C@@H](CC(C)C)NC(=O)[C@H](CCN)NC1=O)[C@@H](C)O [Compound 70, (S)-6-methyloctanoyl-Dab-Thr-Dab-ring(4-10)[Dab-Dab-D-Leu-Leu-Dab-Dab-Thr]] (X2-[Dab]T[Dab][Dab][Dab][dL]L[Dab][Dab]T; lactam 4-C)",–,–,–,–,–,1 µg/mL,1 µg/mL,1 µg/mL,64 µg/mL,2 µg/mL
